Where a SMILES comes first, the peptide text is derived from it. Bridges are numbered along the chain shown (N, C = ends).
Tests used:
V1aR (V1a receptor) [1] = target: T1, V1aR (V1a receptor) (Homo sapiens, UniProt P37288); test: HTRF-IP1 accumulation assay, agonist assessment; format: cell-based; settings: for EC50: V1a receptor-expressing HEK293 cells, IP1 accumulation, 1 h incubation
T1 construct: expressed in transfected cells; host or cells: HEK293
Description: HTRF-IP1 Accumulation Assay Experimental Procedures
OT or V1a receptor-expressing HEK293 cells were seeded onto clear, poly-L-lysine (100 μg/mL)-coated 384 well plates at a density of 8.75×10^3 cells per well. Levels of receptor activation induced by compounds were assessed at concentrations ranging from 1 nM to 100 μM using the HTRF IP-One kit (CisBio International, Bagnolssur-Cze, France), according to manufacturers protocol. For agonist assessment, cells were incubated with compounds for 1 h prior to the addition of Ab-Cryptate and IP1-d2. The ligand concentration that induced a 50% maximal response (EC50) was used to evaluate functional effects across compounds. […] Cells were then incubated for a further 1 h, and Ab-Cryptate and IP1-d2 added.

OXTR (OT receptor) [2] = target: T2, OXTR (OT receptor) (Homo sapiens, UniProt P30559); test: HTRF-IP1 accumulation assay, antagonist assessment; format: cell-based; parameters: expressed in transfected cells; host or cells: HEK293
T2 sequence (P30559 1-389): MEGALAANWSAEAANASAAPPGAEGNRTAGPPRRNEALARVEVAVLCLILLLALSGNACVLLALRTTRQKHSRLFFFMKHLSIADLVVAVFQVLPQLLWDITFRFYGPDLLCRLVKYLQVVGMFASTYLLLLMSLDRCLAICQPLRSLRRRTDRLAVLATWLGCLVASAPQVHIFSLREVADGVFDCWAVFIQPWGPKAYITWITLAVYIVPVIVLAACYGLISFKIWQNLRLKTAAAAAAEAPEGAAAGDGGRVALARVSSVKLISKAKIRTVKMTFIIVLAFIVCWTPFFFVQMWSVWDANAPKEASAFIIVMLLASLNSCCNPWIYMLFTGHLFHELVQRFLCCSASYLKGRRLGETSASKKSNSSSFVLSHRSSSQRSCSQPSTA

OXTR (OT receptor) [3] = target: T2, OXTR (OT receptor); test: cell-based; settings: for Emax: read-out: Emax (% OXT)
OXTR or V1aR receptors = test: Activity/selectivity at OXTR or V1aR receptors stated in words; settings: OXTR over V1aR
V1aR (V1a receptor) [4] = target: T1, V1aR (V1a receptor); test: HTRF-IP1 accumulation assay, antagonist assessment; format: cell-based; settings: against EC70 concentration of vasopressin
OXTR (OT receptor) [5] = target: T2, OXTR (OT receptor); test: Competition radioligand binding assay, [3H]-oxytocin displacement; parameters: expressed in transfected cells; host or cells: HEK293; settings: membranes from OT receptor-expressing HEK293 cells, [3H]-oxytocin 10 nM
Description: (§1) Competition Radioligand Binding Assay Experimental Procedures
(§2) Reactions were incubated for 90 min at 4 C to reach equilibrium, and terminated by rapid filtration over glass fibre filters (Whatman GF/A […]), and washing with ice-cold reaction buffer. Radioactivity was detected after soaking filters in Microscint 0 using a Microbeta2 2450 microplate-reader (Perkin Elmer).

V1aR (V1a receptor) [6] = target: T1, V1aR (V1a receptor); test: Competition radioligand binding assay, [3H]-vasopressin displacement; settings: membranes from V1a receptor-expressing HEK293 cells, [3H]-vasopressin 2 nM
Description: as §1, §2

T1 sequence (P37288 whole entry, species assumed): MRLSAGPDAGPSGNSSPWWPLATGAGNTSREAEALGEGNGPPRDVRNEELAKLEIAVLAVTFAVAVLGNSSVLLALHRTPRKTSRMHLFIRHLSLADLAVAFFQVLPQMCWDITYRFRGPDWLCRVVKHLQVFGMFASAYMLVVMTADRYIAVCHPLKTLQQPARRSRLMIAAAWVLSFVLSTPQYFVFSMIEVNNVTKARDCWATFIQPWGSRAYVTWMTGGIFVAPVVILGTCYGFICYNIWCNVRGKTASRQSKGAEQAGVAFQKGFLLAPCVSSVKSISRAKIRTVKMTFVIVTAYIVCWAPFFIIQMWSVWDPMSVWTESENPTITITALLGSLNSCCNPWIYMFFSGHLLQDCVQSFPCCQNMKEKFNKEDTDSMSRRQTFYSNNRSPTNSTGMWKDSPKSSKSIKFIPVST

Emax (V1aR (V1a receptor) [1]; V1aR, relative to vasopressin) [%]	SMILES	IC50 (OXTR (OT receptor) [2]) [µM]	EC50 (V1aR (V1a receptor) [1]) [µM]	EC50 (OXTR (OT receptor) [3]) [nM]	Emax (OXTR (OT receptor) [3]) [%]	selectivity and activity compared with oxytocin (OXTR or V1aR receptors)	IC50 (V1aR (V1a receptor) [4]) [µM]	Ki (OXTR (OT receptor) [5]) [nM]	Ki (V1aR (V1a receptor) [6]) [nM]
82	CC[C@H](C)[C@@H]1NC(=O)[C@H](Cc2ccc(O)cc2)NC(=O)[C@@H](N)CSSC[C@@H](C(=O)N2CCC[C@H]2C(=O)N[C@@H](CC(C)C)C(=O)NCC(N)=O)NC(=O)[C@H](CC(N)=O)NC(=O)[C@H](CCC(N)=O)NC1=O [Oxytocin, reference compound]	–	–	–	–	–	–	–	–
–	CC[C@H](C)[C@@H]1NC(=O)[C@H](Cc2ccc(O)cc2)NC(=O)[C@@H](N)CSSC[C@@H](C(=O)N2CCC[C@H]2C(=O)N[C@@H](CC(C)C)C(N)=O)NC(=O)[C@H](CC(N)=O)NC(=O)[C@H](CCC(N)=O)NC1=O [Metabolite A] (H-CYIQNCPL-NH2; disulfide 1-6)	> 10	> 10	274	79.2	enhanced selectivity and activity	> 10	138	749
–	CC[C@H](C)[C@@H]1NC(=O)[C@H](Cc2ccc(O)cc2)NC(=O)[C@@H](N)CSSC[C@@H](C(=O)N2CCC[C@H]2C(N)=O)NC(=O)[C@H](CC(N)=O)NC(=O)[C@H](CCC(N)=O)NC1=O [Metabolite B] (H-CYIQNCP-NH2; disulfide 1-6)	> 10	> 10	110	74.1	enhanced selectivity and activity	> 10	72.6	105

Source: patent publication US11414459B2 (Kinoxis Therapeutics Pty Ltd, priority 2017, dated 2022)
